Data taken from patent publication US20240247031A1, “COMPOSITION FOR TREATING CANCER CONTAINING TELOMERASE-TARGETING GNRH ANTAGONIST-DERIVED PEPTIDE HS1002” (Research & Business Foundation Sungkyunkwan University, priority 2023, published 2024).

Experiments:
serum testosterone = assay: Serum testosterone level and seminal vesicle weight after repeated injection (FIG. 15); type: in vivo, mouse; settings: male BALB/c mice
Description: 6-week-old male BALB/c mice (Jung Ang Lab Animal Inc., Seoul, South Korea) were subcutaneously injected with vehicle or 1 mg/kg/day HS1002 for 10 days. Blood samples were collected 5 h after initial injection and 5 h after last injection. The serum concentration of testosterone was determined using a testosterone ELISA kit (ALPCO Diagnostics, Salem, NH, USA).
GnRH agonists stimulate the release of LH and FSH by binding to GnRHR located on the pituitary gonadotropes and consequently stimulate the secretion of steroid hormone from the gonads. However, continuous exposure to the GnRH agonist results in the downregulation of desensitization of GnRHR and eventually decreases production of testosterone. The inhibitory effect on the pituitary gonadal axis has a role in the anti-prostate cancer effects of GnRH analogs. Based on the HS1002 peptide design strategy, to validate whether HS1002 functions as a GnRHR ligand, the serum testosterone level in male mice was tested after repeated subcutaneous injections of HS1002.

[1] = system: Ki-67 and hTERT in LNCaP tumor tissue; assay: Ki-67 immunohistochemistry and hTERT immunoblotting in xenograft tumor tissue (FIG. 18); type: in vivo, mouse; settings: s.c. administration, compared with the control group
Description: Mice were sacrificed, and the excised tumors were fixed in 10% formalin and impregnated with paraffin. For pathological examination, immunohistochemistry was performed by the avidin-biotin complex method using Ki-67 antibodies. The immune response was visualized with a reagent (3,3-diaminobenzidine) and counter-stained with Mayer's hematoxylin. TUNEL assay in tissue was performed using ApopTag Plus Peroxidase in Situ Apoptosis Detection kits (Intergen, Purchase, NY)) according to the manufacturer's indications. In summary, paraffin was removed from slides, and the slides were placed in 3% hydrogen peroxide to inhibit endogenous peroxidase. The slides were incubated in a reaction buffer containing an enzyme (terminal deoxynucleotidyl transferase) at 37° C. for 1 h. The slides were incubated with peroxidase-conjugated anti-digoxigenin antibodies for 30 min, and the reaction product was visualized with a solution containing 2 mmol hydrogen peroxide (0.03% 3,3-diaminobenzidine solution). Counterstaining was performed with 0.5% methyl green. Ki-67- and TUNEL-positive cells were counted and expressed as an average of the five highest areas within a single×200 field. A portion of tumor tissue was homogenized, followed by immunoblotting for hTERT.

Structure (SMILES): CCNC(=O)[C@@H]1CCCN1C(=O)[C@@H](NC(=O)[C@H](Cc1ccccc1)NC(=O)[C@H](CCCNC(=N)N)NC(=O)[C@H](CC(C)C)NC(=O)[C@H](CCCNC(=N)N)NC(=O)[C@H](Cc1ccc(O)cc1)NC(=O)[C@H](CO)NC(=O)[C@H](Cc1c[nH]c2ccccc12)NC(=O)[C@H](Cc1c[nH]cn1)NC(=O)[C@@H]1CCC(=O)N1)[C@@H](C)CC [HS1002]
- serum testosterone level increase compared to the vehicle-injected group (serum testosterone; 1 mg/kg s.c., 5 h after the 1st injection): 2.37 fold
- seminal vesicle weights (serum testosterone; 1 mg/kg/day s.c., 10 days, vs vehicle): significantly reduced
- serum testosterone level (serum testosterone; 1 mg/kg/day s.c., at 10 days after repeated injection, vs vehicle): significantly lower
- Ki-67 protein expression level in tumor tissues [1]: distinctively reduced
- hTERT protein expression level in tumor tissues [1]: distinctively reduced
